For two compounds, Ki results are on record in ChEMBL document CHEMBL1127114, “Conformationally constrained analogues of diacylglycerol. 5. 2,5-Dideoxy-3-O-tetradecanoyl-D-galactono-1,4-lactone: A superior homologue of 3-O-tetradecanoyl-2-deoxy-L-ribonolactone with PK-C binding affinity” (Bioorg Med Chem Lett, 1993).

Broadly, the Ki is the dissociation constant of the complex between target and ligand, obtained from inhibition or displacement. Low readings indicate higher affinity, high ones lower affinity.

Assay [1] deals with T1, Protein kinase C alpha type (Homo sapiens, UniProt P17252). Nature of the assay: Inhibition of [20-3H]phorbol-12,13-dibutyrate(PDBU) binding to purified PK-C alpha.
Assay [2] concerns the target T1, Protein kinase C alpha type. Put plainly: Inhibition of [3H]phorbol-12,13-dibutyrate binding to PK-C.

As to `CCCCCCCCCCCCCC(=O)O[C@@H]1CC(=O)O[C@H]1CO`, the inhibitory constant (Ki) in assay [1] is 1500 nM; in assay [2], 2500 nM.
In assay [1], `CCCCCCCCCCCCCC(=O)O[C@@H]1CC(=O)O[C@H]1CCO` registered an inhibitory constant (Ki) of 880 nM.
